Patent publication US8318943B1, “Sorbitol/dexlansoprazole co-crystals and method for making same” (Takeda Pharmaceuticals U.S.A., Inc., priority 2010, dated 2012)
Marks after values point to notes of the source that are not given here.

Experiments:
[1] = Aqueous solubility, 24 h equilibration, HPLC of filtrate; assay type: physicochemical
Method: (§1) HPLC was carried out in a TSP instrument with a P4000 pump, an AS3000 autosampler, an SCM1000 degasser, a UV3000 detector, and PC1000 Version 4.1 software.
The pH of the corresponding saturated solution was 6.1. […] This may be due to chemical instability of dexlansoprazole in the solution environment.

[2] = Kinetic solubility experiment in water; assay type: physicochemical
Method: as §1
A further experiment to evaluate the kinetic solubility was carried out. The maximum was reached already after 15 minutes and that the concentration in the solution remained constant for the duration of the experiment.

[3] = Dynamic vapor sorption (DVS), hygroscopicity; assay type: physicochemical; details: for DVS weight gain at 85% relative humidity: 85% r.h.
Method: DVS was carried out in a Surface Measurement System DVS-1. The sample was placed on a platinum holder on top of a microbalance and allowed to equilibrate for 2 hours at 50% r.h. before starting the pre-defined humidity program: 50→95% r.h. (5%/h); 5 hours at 95% r.h., 95→0% r.h. (5%/h); 5 h at 0% r.h., then 0→50% r.h. (5%/h); and 2 hours at 50% r.h.
The hygroscopicity was classified based on the mass gain at 85% r.h. relative to the initial mass as follows: deliquescent (sufficient water adsorbed to form a liquid), very hygroscopic (mass increase of ≧15%), hygroscopic (mass increase <15% but ≧2%), slightly hygroscopic (mass increase <2% but ≧0.2%), or non-hygroscopic (mass increase <0.2%).
In order to examine the behavior of SP134-SBT-P26 in the presence of variable water vapor pressure, the sample was analyzed by isothermal DVS at 25° C. […] The sample was conditioned at 50% r.h. before starting a pre-defined humidity program with a scanning rate of 5% r.h. change per hour. Below 50% r.h. a small but continuous mass loss of the sample is observed (˜0.07%). This mass loss is in good accordance to the results of the TG-FTIR-measurement and Karl Fischer water content determination.
In order to examine the behavior of SP134-SBT-P27 in the presence of variable water vapor pressure, the sample was analyzed by isothermal DVS at 25° C. The sample was conditioned at 50% r.h. before starting a pre-defined humidity program with a scanning rate of 5% r.h. change per hour. Below 50% r.h. a small but continuous mass loss of the sample is observed (˜0.06%). This mass loss is in good accordance to the results of the TG-FTIR-measurement and Karl Fischer water content determination.

[4] = Stability of the co-crystal as a solid and in water or solution; details: for Stability in water for 24 hours: 25° C., disintegration into its components
Method: Solubility was determined by adding approximately 0.5 mL of doubly distilled water to 19.1 mg of the substance to be measured. The resulting suspension was equilibrated in a temperature-controlled Eppendorf Thermomixer Comfort Shaker for 24 hours at 25° C. at a shaking rate of 500 rpm. The solid phase was recovered by filter centrifugation (0.1-μm PVDF membrane) and examined by FT-Raman spectroscopy. Concentrations in the filtrate (i.e., saturated solutions) or diluted solutions thereof were determined using the HPLC method disclosed herein. The pH of the saturated solution was determined with a Metrohm 713 pH meter.

[5] = Approximate solubility by manual dilution combined with visual observation; details: room temperature
Method: The approximate solubilities of the sorbitol co-crystal former were estimated at 60° C. and of the 1:1 dexlansoprazole-sorbitol co-crystal at 40° C. and 10° C. […] The solubility values presented are intended to be regarded as rough estimates and are to be used solely for the design of crystallization experiments. All solvent mixtures are listed as ratios by volume (v/v).
The solubility values presented are intended to be regarded as rough estimates and are to be used solely for the design of crystallization experiments. All solvent mixtures are listed as ratios by volume (v/v).

Q: What does the source list for `Cc1c(OCC(F)(F)F)ccnc1C[S+]([O-])c1nc2ccccc2[nH]1.Cc1c(OCC(F)(F)F)ccnc1C[S+]([O-])c1nc2ccccc2[nH]1.OCC(O)C(O)C(O)C(O)CO.OCC(O)C(O)C(O)C(O)CO.OCC(O)C(O)C(O)C(O)CO` (centres unmarked) [SP134-SBT-P7]?
A: Solubility in water ([1]; 24 hours equilibration at 22° C., solid residue was free drug, so value corresponds to free drug): 0.18 mg/mL; pH of the saturated solution ([1]; water, 24 hours equilibration): 6.1; Solubility as a function of time, constant value reached ([2]; after 15 minutes): 0.25 mg/mL; Kinetic solubility in water ([2]; 15 min): 0.25 mg dexlansoprazole per ml; Kinetic solubility in water ([2]; 30 min): 0.26 mg dexlansoprazole per ml; Kinetic solubility in water ([2]; 1 hour): 0.26 mg dexlansoprazole per ml; Kinetic solubility in water ([2]; 2 hour): 0.24 mg dexlansoprazole per ml; Kinetic solubility in water ([2]; 4 hrs.): 0.27 mg dexlansoprazole per ml; Kinetic solubility in water ([2]; 8 hrs.): 0.27 mg dexlansoprazole per ml; Reversibility of DVS weight gain and loss [3]: reversible; DVS weight loss at 0% r.h. relative to the starting weight ([3]; 0% r.h.): < 1 wt.-%; DVS weight increase at 50% r.h. on desorption relative to the starting weight ([3]; 50% r.h. after lowering from 95% r.h.): ~1 wt. %; DVS step in weight gain ([3]; 70-75% r.h.): ~4 wt.-%; DVS weight gain at 85% relative humidity [3]: (~70-75% r.h.), gain of ~7 wt.-% at 85% r.h.;; DVS weight gain at 85% relative humidity ([3]; listed as sorbitol co-crystal): ~7 wt.-%; FT-Raman post-DVS compared with pre-DVS/reference (form change) ([3]; after DVS cycle): no significant changes; Hygroscopicity class ([3]; mass gain at 85% r.h. relative to the initial mass, listed as sorbitol co-crystal): hygroscopic (mass increase <15% but ≧2%); DVS weight gain at 95% relative humidity ([3]; r.h. raised from 50% to 95%): 20 wt.-%; Stability as a solid ([4]; solid): stable; Stability in water for 24 hours [4]: solid form not stable in H2O for 24 h, disintegrates; Stability in water for 24 hours ([4]; listed as dexlansoprazole/sorbitol co-crystal): not stable; solubility ([5]; 1:1 EtOAc/DMSO): >200 mg/mL; Solubility (mg/mL) ([5]; 1:1 EtOH/H2O): 50-100^a mg/mL; solubility ([5]; 2:1 EtOH/H2O + 5 vol.-% NH3 solution): 60 to 100 mg/mL; solubility ([5]; 2:1 MeOH/H2O + 5 vol.-% NH3 solution): 60 to 100 mg/mL; Solubility (mg/mL) ([5]; 2:1 MeOH/borax buffer (pH = 9.0)): 45-65^a mg/mL; solubility ([5]; 9:1 EtOAc/DMSO): ~10 mg/mL; solubility ([5]; EtOAc): <1 mg/mL; Solubility (mg/mL) ([5]; H2O): 0.25^a mg/mL
